# Results as given in PubChem BioAssay (NCI).
#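 Results reflect a 48-hour exposure of cells in 96-well plates to compound at five concentrations. TGI is the concentration that stops growth completely.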
# Key:
# Test in all cases: NCI-60 cell line screen, 48 h
# OVCAR-3 ovarian = test system: OVCAR-3 ovarian
# DMS 114 small cell lung = test system: DMS 114 small cell lung
# RPMI-8226 leukemia = test system: RPMI-8226 leukemia
# SNB-78 CNS = test system: SNB-78 CNS
# NCI-H226 lung = test system: NCI-H226 lung
# EKVX NSCLC = test system: EKVX NSCLC
# OVCAR-8 ovarian = test system: OVCAR-8 ovarian
# K-562 leukemia = test system: K-562 leukemia
# U251 CNS = test system: U251 CNS
# DLD-1 colon = test system: DLD-1 colon
# HOP-62 NSCLC = test system: HOP-62 NSCLC
# LOX IMVI melanoma = test system: LOX IMVI melanoma
# OVCAR-5 ovarian = test system: OVCAR-5 ovarian
# A549 NSCLC = test system: A549 NSCLC
# M14 melanoma = test system: M14 melanoma
# DMS 273 small cell lung = test system: DMS 273 small cell lung
# SK-MEL-28 melanoma = test system: SK-MEL-28 melanoma
# KM20L2 colon = test system: KM20L2 colon
# CAKI-1 renal = test system: CAKI-1 renal
# CCRF-CEM leukemia = test system: CCRF-CEM leukemia
# ACHN renal = test system: ACHN renal
# SN12C renal = test system: SN12C renal
# RXF 393 renal = test system: RXF 393 renal
# 786-0 renal = test system: 786-0 renal
# HCC-2998 colon = test system: HCC-2998 colon
# HOP-92 NSCLC = test system: HOP-92 NSCLC
# SK-MEL-5 melanoma = test system: SK-MEL-5 melanoma
# SF-295 CNS = test system: SF-295 CNS
# KM12 colon = test system: KM12 colon
# UO-31 renal = test system: UO-31 renal
# NCI-H23 lung = test system: NCI-H23 lung
# SW-620 colon = test system: SW-620 colon
# SR leukemia = test system: SR leukemia
# UACC-62 melanoma = test system: UACC-62 melanoma
# SK-OV-3 ovarian = test system: SK-OV-3 ovarian
# COLO 205 colon = test system: COLO 205 colon
# OVCAR-4 ovarian = test system: OVCAR-4 ovarian
# NCI-H460 lung = test system: NCI-H460 lung
# TK-10 renal = test system: TK-10 renal
# SF-268 CNS = test system: SF-268 CNS
# SNB-75 CNS = test system: SNB-75 CNS
# HOP-18 NSCLC = test system: HOP-18 NSCLC
# UACC-257 melanoma = test system: UACC-257 melanoma
# IGROV1 ovarian = test system: IGROV1 ovarian
# HT29 colon = test system: HT29 colon
# MOLT-4 leukemia = test system: MOLT-4 leukemia
# HCT-116 colon = test system: HCT-116 colon
# LXFL 529 NSCLC = test system: LXFL 529 NSCLC
# A498 renal = test system: A498 renal
# SNB-19 CNS = test system: SNB-19 CNS
# MALME-3M melanoma = test system: MALME-3M melanoma
# M19-MEL melanoma = test system: M19-MEL melanoma
# HCT-15 colon = test system: HCT-15 colon
# SF-539 CNS = test system: SF-539 CNS
# HL-60(TB) leukemia = test system: HL-60(TB) leukemia
# SK-MEL-2 melanoma = test system: SK-MEL-2 melanoma
# NCI-H522 lung = test system: NCI-H522 lung
compound,measurement,setting,value
COC(=O)C1=C(c2cc(OC)c(OC)c(OC)c2)OC(c2ccc3c(c2)OCO3)C1 (stereo not given),TGI,OVCAR-3 ovarian,81.7 µM
same,TGI,DMS 114 small cell lung,45.7 µM
same,TGI,RPMI-8226 leukemia,> 100 µM
same,TGI,SNB-78 CNS,> 100 µM
same,TGI,NCI-H226 lung,> 100 µM
same,TGI,EKVX NSCLC,99.2 µM
same,TGI,OVCAR-8 ovarian,> 100 µM
same,TGI,K-562 leukemia,> 100 µM
same,TGI,U251 CNS,> 100 µM
same,TGI,DLD-1 colon,> 100 µM
same,TGI,HOP-62 NSCLC,> 100 µM
same,TGI,LOX IMVI melanoma,> 100 µM
same,TGI,OVCAR-5 ovarian,> 100 µM
same,TGI,A549 NSCLC,> 100 µM
same,TGI,M14 melanoma,> 100 µM
same,TGI,DMS 273 small cell lung,> 100 µM
same,TGI,SK-MEL-28 melanoma,> 100 µM
same,TGI,KM20L2 colon,58.2 µM
same,TGI,CAKI-1 renal,> 100 µM
same,TGI,CCRF-CEM leukemia,> 100 µM
same,TGI,ACHN renal,> 100 µM
same,TGI,SN12C renal,> 100 µM
same,TGI,RXF 393 renal,> 100 µM
same,TGI,786-0 renal,> 100 µM
same,TGI,HCC-2998 colon,> 100 µM
same,TGI,HOP-92 NSCLC,> 100 µM
same,TGI,SK-MEL-5 melanoma,> 100 µM
same,TGI,SF-295 CNS,> 100 µM
same,TGI,KM12 colon,> 100 µM
same,TGI,UO-31 renal,> 100 µM
same,TGI,NCI-H23 lung,98.9 µM
same,TGI,SW-620 colon,67.3 µM
same,TGI,SR leukemia,62.8 µM
same,TGI,UACC-62 melanoma,35.5 µM
same,TGI,SK-OV-3 ovarian,> 100 µM
same,TGI,COLO 205 colon,26.8 µM
same,TGI,OVCAR-4 ovarian,> 100 µM
same,TGI,NCI-H460 lung,> 100 µM
same,TGI,TK-10 renal,> 100 µM
same,TGI,SF-268 CNS,> 100 µM
same,TGI,SNB-75 CNS,> 100 µM
same,TGI,HOP-18 NSCLC,> 100 µM
same,TGI,UACC-257 melanoma,> 100 µM
same,TGI,IGROV1 ovarian,29.5 µM
same,TGI,HT29 colon,97.5 µM
same,TGI,MOLT-4 leukemia,> 100 µM
same,TGI,HCT-116 colon,> 100 µM
same,TGI,LXFL 529 NSCLC,90 µM
same,TGI,A498 renal,52.2 µM
same,TGI,SNB-19 CNS,> 100 µM
same,TGI,MALME-3M melanoma,> 100 µM
same,TGI,M19-MEL melanoma,> 100 µM
same,TGI,HCT-15 colon,> 100 µM
same,TGI,SF-539 CNS,> 100 µM
O=C1[C@H]2ON(c3ccccc3)C(c3ccc(Cl)cc3Cl)[C@H]2C(=O)N1c1ccc(Cc2ccc(N3C(=O)[C@@H]4ON(c5ccccc5)C(c5ccc(Cl)cc5Cl)[C@@H]4C3=O)cc2)cc1 (stereo not given in full),TGI,OVCAR-3 ovarian,> 100 µM
same,TGI,DMS 114 small cell lung,> 100 µM
same,TGI,RPMI-8226 leukemia,> 100 µM
same,TGI,SNB-78 CNS,> 100 µM
same,TGI,NCI-H226 lung,> 100 µM
same,TGI,EKVX NSCLC,> 100 µM
same,TGI,OVCAR-8 ovarian,> 100 µM
same,TGI,K-562 leukemia,> 100 µM
same,TGI,U251 CNS,> 100 µM
same,TGI,DLD-1 colon,> 100 µM
same,TGI,HOP-62 NSCLC,> 100 µM
same,TGI,LOX IMVI melanoma,> 100 µM
same,TGI,OVCAR-5 ovarian,> 100 µM
same,TGI,A549 NSCLC,> 100 µM
same,TGI,M14 melanoma,69 µM
same,TGI,DMS 273 small cell lung,> 100 µM
same,TGI,SK-MEL-28 melanoma,> 100 µM
same,TGI,KM20L2 colon,> 100 µM
same,TGI,CAKI-1 renal,> 100 µM
same,TGI,CCRF-CEM leukemia,> 100 µM
same,TGI,ACHN renal,> 100 µM
same,TGI,SN12C renal,> 100 µM
same,TGI,HL-60(TB) leukemia,> 100 µM
same,TGI,786-0 renal,> 100 µM
same,TGI,HCC-2998 colon,> 100 µM
same,TGI,HOP-92 NSCLC,> 100 µM
same,TGI,SK-MEL-5 melanoma,> 100 µM
same,TGI,SF-295 CNS,> 100 µM
same,TGI,KM12 colon,> 100 µM
same,TGI,UO-31 renal,> 100 µM
same,TGI,NCI-H23 lung,> 100 µM
same,TGI,SW-620 colon,> 100 µM
same,TGI,SR leukemia,> 100 µM
same,TGI,UACC-62 melanoma,> 100 µM
same,TGI,SK-OV-3 ovarian,> 100 µM
same,TGI,COLO 205 colon,> 100 µM
same,TGI,OVCAR-4 ovarian,> 100 µM
same,TGI,NCI-H460 lung,> 100 µM
same,TGI,TK-10 renal,> 100 µM
same,TGI,SF-268 CNS,> 100 µM
same,TGI,SNB-75 CNS,> 100 µM
same,TGI,HOP-18 NSCLC,> 100 µM
same,TGI,SK-MEL-2 melanoma,> 100 µM
same,TGI,UACC-257 melanoma,> 100 µM
same,TGI,IGROV1 ovarian,> 100 µM
same,TGI,HT29 colon,> 100 µM
same,TGI,MOLT-4 leukemia,> 100 µM
same,TGI,HCT-116 colon,> 100 µM
same,TGI,LXFL 529 NSCLC,> 100 µM
same,TGI,A498 renal,> 100 µM
same,TGI,SNB-19 CNS,> 100 µM
same,TGI,MALME-3M melanoma,> 100 µM
same,TGI,M19-MEL melanoma,> 100 µM
same,TGI,NCI-H522 lung,> 100 µM
same,TGI,HCT-15 colon,> 100 µM
same,TGI,SF-539 CNS,> 100 µM
